Assay results: ChEMBL document CHEMBL1155585, “Cypellocarpins A-C, phenol glycosides esterified with oleuropeic acid, from Eucalyptus cypellocarpa” (J Nat Prod, 2000)

Assays:
[1] = organism: Mus musculus; experiment: Antitumor activity against (+/-)-(E)-4-methyl-2-[(E)-hydroxyimino]-6-methoxy-5-nitro-3-hexenamide/TPA-induced carcinogenesis in mouse assessed as reduction in number of tumor bearing mouse at 50 molar ratio/TPA after 10 weeks relative to control; format: functional; set-up: scale not given: the % may be the effect or the level left
[2] = Cytotoxicity against human Raji cells assessed as cell viability at 1000 molar ratio/TPA; format: cell-based; conditions: read-out: Activity
[3] = organism: Mus musculus; experiment: Antitumor activity against (+/-)-(E)-4-methyl-2-[(E)-hydroxyimino]-6-methoxy-5-nitro-3-hexenamide/TPA-induced carcinogenesis in mouse assessed as reduction in number of tumor bearing mouse at 50 molar ratio/TPA after 20 weeks relative to control; format: functional; set-up: scale not given: the % may be the effect or the level left

Compound	Activity [1] [%]	viability at 1000 molar ratio/TPA [2] [%]	Activity [3] [%]
Cc1c(O[C@@H]2O[C@H](CO)[C@@H](O)[C@H](O)[C@H]2O)c(C=O)c(O)c2c1OC(C)(C)C=C2	30	60	
CC1(O)CC(=O)c2c(O)cc(O[C@@H]3O[C@H](COC(=O)C4=CC[C@H](C(C)(C)O)CC4)[C@@H](O)[C@H](O)[C@H]3O)cc2O1 (stereo partly drawn) [CYPELLOCARPIN B]	30	70	58
CC(C)(O)[C@H]1CC=C(C(=O)OC[C@H]2O[C@@H](Oc3cc(C(=O)O)cc(O)c3O)[C@H](O)[C@@H](O)[C@@H]2O)CC1 [CYPELLOCARPIN A]		70	
Cc1cc(=O)c2c(O)cc(O[C@@H]3O[C@H](COC(=O)C4=CC[C@H](C(C)(C)O)CC4)[C@@H](O)[C@H](O)[C@H]3O)cc2o1 [CYPELLOCARPA C]	30	70	
